According to patent publication US20180178030A1, “PHOTODYNAMIC THERAPEUTIC METHOD FOR TREATING DENTAL INFECTION” (Olighter Co. Ltd., priority 2016, published 2018):

Columns and labels:
[1] = system: G (+) bacteria (Streptococcus mutans, Streptococcus sobrinus); experiment: in vitro bacterial disinfection by photodynamic therapy method (FIG. 8), G (+) bacteria; type: cell-based; details: photosensitizer plus infrared laser ray 808 nanometers, irradiation about 5 minutes
From the text: (§1) One group assay represents the different bacterial disinfection by using the photodynamic therapy method in vitro with a specific irradiated wavelength of the light, and the other group assay represents the different bacterial disinfection by using the photodynamic therapy method in vitro with a specific compound X and the specific irradiated wavelength of the light.
(§2) The light is infrared laser ray. The specific irradiated wavelength of the infrared laser ray of is 808 nanometers. The specific compound X is a photosensitizer. The photosensitizer is the indocyanine green dye. The period of irradiating the bacteria is about 5 minutes. The bacteria include gram positive (G (+)) bacteria and gram negative (G (−)) bacteria. The G (+) bacteria include a Streptococcus mutans (S. mutans) and a Streptococcus sobrinus (S. sobrinus). The G (−) bacteria include an Aggregatibacter actinomycetemcomitans (A. actinomycetemcomitans), a Fusobacterium nucleatum (F. nucleatum), and a Porphyromonas gingivalis (P. gingivalis).
(§3) Referring to FIG. 8, when the photodynamic therapy method in vitro uses the specific photosensitizer and the specific irradiated wavelength of the light, the G (+) bacterial show the percentage growth rate as zero, and the G (−) bacteria show the percentage growth rate as less than 20%.

[2] = system: G (−) bacteria (Aggregatibacter actinomycetemcomitans, Fusobacterium nucleatum, Porphyromonas gingivalis); experiment: in vitro bacterial disinfection by photodynamic therapy method (FIG. 8), G (−) bacteria; type: cell-based; details: photosensitizer plus infrared laser ray 808 nanometers, irradiation about 5 minutes
From the text: as §1, §2, §3

`CC1(C)C(/C=C/C=C/C=C/C=C2\N(CCCCS(=O)(=O)O)c3ccc4ccccc4c3C2(C)C)=[N+](CCCCS(=O)(=O)[O-])c2ccc3ccccc3c21` [specific photosensitizer, indocyanine green] was tested, and the “percentage growth rate of the bacteria” value [1] was “zero” and the “percentage growth rate of the bacteria” value [2] was “less than 20%”.
